Patent EP0486045A2, “S(+)-Phenyl-alkanoic acids and alpha-amino acid containing complexes” (MEDICE Chem.-Pharm. Fabrik Pütter GmbH & Co. KG, priority 1990, dated 1992)
Where “and” joins values, the source holds several entries; their conditions need not be identical. Equal entries are not always repeated. Where two headings read alike, the source gives them in different places. Each block holds one compound with its values, some of them ahead of it.

Columns and labels:
[1] = physchem
[2] = clinical; conditions: human, in vivo, po, 150 mg
[3] = Pharmacokinetic comparison after a single oral dose of 150 mg S-(+)-Ibuprofen, free acid tablet vs D-Lysinat (Tabelle 5); conditions: for Ae conj. I / Ae, free 1 / tlag: single oral dose 150 mg S-(+)-Ibuprofen, Mean ± SD
[4] = test system: primärer Dysmenorrhör; experiment: Pharmacodynamics: pain intensity on a visual analogue scale (0 - 10), self-rated; format: in vivo, Probandinnen
Excerpt: In einer monozentrienden Studie wurde die Pharmakodynamik bei primärer Dysmenorrhör an 24 Probandinnen untersucht. Die Mittelwerte aller Probandinnen als Auswertung einer Schmerzintensitätsskala sind in Tabelle 4 sowie Fig. 4 graphisch dargestellt. Die Schmerzintensität wurde anhand der visuellen Analogskala (einer von 0 - 10 offenen Skala) von den Probandinnen im Rahmen einer Selbstbeurteilung angegeben.
Wie aus Fig. 4 zu ersehen, betrug die mittlere Schmerzintensität zum Zeitpunkt Null 4,7, die analgetische Wirksamkeit setzte innerhalb von 5 Minuten ein und verminderte sich innerhalb der ersten 45 Minuten auf einen Wert von im Mittel 1,65. Die maximale analgetische Wirkung wurde nach 2 Stunden mit einem Wert von 0,36 erreicht. Anschließend stieg die Schmerzintensität bis auf einen Wert von 0,83 nach 6 Stunden wieder langsam an. Die Fig. 4 zeigt die Schmerzintensitätskurve der Probandinnen.

[5] = Adverse drug effects, laboratory parameters and medical follow-up in the study; format: in vivo, Probandinnen; conditions: up to 3 x daily 200 mg on 3 days
Excerpt: Unerwünschte Arzneimittelwirkungen traten bei keiner Teilnehmerin an der Studie auf.

[6] = human, in vivo, po, 150 mg
[7] = Pharmacokinetics of S-(+)-Ibuprofen-D-Lysinat capsules (200 mg S-(+)-Ibuprofen, oral) in 24 subjects

pKa [1]: ~12.5
Structure (SMILES): N=C(N)NCCC[C@H](N)C(=O)O [Arginin]

Structure (SMILES): NCCCC[C@H](N)C(=O)O [Lysin]
pKa [1]: 10.5

Structure (SMILES): CC(C)Cc1ccc([C@H](C)C(=O)O)cc1 [S-(+)-Ibuprofen, freie Säure, S-(+)-Ibuprofen]
Cmax [2]: 10900 ng/mL
AUC ([3]; human, in vivo, po, 150 mg): 44500 ng·h/mL
tmax ([3]; human, in vivo, po, 150 mg): 2 h
Ae conj. I [3]: 8,0 ± 2,9
Ae, free 1 [3]: 0,6 ± 0,2 % of dose
tlag [3]: 0,5 ± 0,1 h

Structure (SMILES): CC(C)Cc1ccc([C@H](C)C(=O)O)cc1.NCCCC[C@@H](N)C(=O)O [S-(+)-Ibuprofen-D-Lysinat]
mittlere Schmerzintensität ([4]; Zeitpunkt Null (baseline), scale 0 - 10, mean of 24 subjects): 4,7
mittlere Schmerzintensität ([4]; nach 2 Stunden (maximal analgesic effect), scale 0 - 10): 0,36
mittlere Schmerzintensität ([4]; nach 6 Stunden, scale 0 - 10): 0,83
Einsetzen der analgetischen Wirksamkeit ([4]; onset of analgesia): ≤ 5 Minuten
mittlere Schmerzintensität ([4]; within the first 45 Minuten, scale 0 - 10): 1,65
unerwünschte Arzneimittelwirkungen ([5]; single or repeated intake): zu keinen unerwünschten Arzneimittelwirkungen geführt hat mit Ausnahme der bei einer Probandin aufgetretenen pseudoallergischen Reaktion
laborchemische Parameter und ärztliche Nachuntersuchung [5]: ohne pathologischen Befund
Cmax [6]: 23,0 ± 5,2 µg/ml
AUC (Trapez) ([7]; group A (n 6), mean x̄, capsule single dose, 720 min): 69,55 mg/lx12h
tmax ([7]; mean of all subjects, 200 mg capsule oral): 33 Minuten and 33,59 Minuten
AUC ([7]; mean of all subjects, trapezoidal rule, 200 mg capsule oral, 720 min): 56,45 mg/1 x 12 h
Verzögerungszeit (lag-Time) der Resorption ([7]; mean, 200 mg capsule oral): 2,33 Minuten
Ae conj. I [3]: 9,3 ± 5,4
Ae, free 1 [3]: 0,6 ± 0,5 % of dose
tlag [3]: 0,1 ± 0,02 h
